Laboratory results taken from patent US11696903B2, “Compounds and methods for scavenging dicarbonyl electrophiles” (VANDERBILT UNIVERSITY, priority 2019, dated 2023).

Experiments:
[1] = tested on: Lysyl-LG adducts in AGS cells; assay: Lysyl-LG adducts in AGS cells infected with H. pylori PMSS1; format: cell-based, human
Experimental: FIGS. 15A, 15B, and 15C are graphs showing C57BL/6 (A) or INS-GAS mice (B) were infected for 8 weeks with H. pylori PMSS1. Lysyl-LG adducts were measured in the gastric tissues by LC/ESI/MS/MS. *P<0.05. (C) Lysyl-LG adducts concentration was determined in AGS cells infected (plain bars) or not (open bars) with H. pylori PMSS1 for 24 h, in the presence or absence of EtSA. *P<0.05 vs. uninfected cells. § P<0.05 vs. infected cells without EtSA.
[…] FVB/N insulin-gastrin (INS-GAS) mice and Mongolian gerbils were infected for 8 wk with Hp PMSS1 and 7.13, respectively; EtSA (0.75% in water) was given to animals beginning one wk post-infection. Lys-LG adducts, a marker of electrophile reactions, and EtSA were quantified by LC/EST/MS/MS. Histology was analyzed on H&E staining. DNA damage was evaluated by pH2AX staining. Hp colonization was quantified by culture. Mucosal immune responses were determined by RNA profiling and by Luminex assay. Mice were imaged using PET/CT with ^18F-FDG (inflammation marker) and ^18F—NaF (tumor marker).
To further determine whether ethylsalicylamine (EtSA) prevents the formation of bifunctional electrophiles during H. pylori infection, the […] were treated or not with EtSA 30 min prior to the infection.

[2] = tested on: LG-histone adducts in RAW264.7 cells; assay: LG-lysyl adduct formation on histones in RAW264.7 cells (LC/ESI/MS/MS); format: cell-based, mouse
Experimental: FIGS. 11A, 11B, 11C, 11D, 11E, and 11F are a series of graphs showing that LG-lysine adducts of histones are found in cells and tissue, dependent on COX-2 activity. RAW264.7 mouse macrophage (A) and A549 human lung carcinoma (C) cells were stimulated to express COX-2, then given 20 μM arachidonic acid (AA) or vehicle. A subgroup of cells was preincubated 45 min with 50 μM indomethacin. As a measure of COX activity, PGE2 was determined by GC/MS from cell media prior to lysis (B and D). Nuclei were isolated, and histones were extracted and digested to individual amino acids prior to LC/EST/MS/MS analysis. *, p<0.05; ***, p<0.001 by ANOVA followed by Tukey's post-test (n≥5). (E). Histones were extracted from nuclei of rat liver, and analyzed as above for LG-lactam adduct. COX-2 protein was analyzed by Western blotting and plotted against lactam adduct levels. Each point corresponds to 1 liver, and shown is the line of regression (r^2=0.7237). Pearson r=0.8507; two-tailed p=0.0152. (F) LC-MS chromatograph of histones isolated from a rat liver with relatively high COX-2 expression (COX-2 band intensity of 117 arbitrary units).
(A). Scavengers were screened in RAW264.7 cells for the ability to decrease LG adduct formation on histones. Scavengers used were glucosamine (GA), 3-methoxysalicylamine (3-MoSA), pentylpyridoxamine (PPM), and 5-ethylsalicylamine (EtSA). Cells were stimulated to express COX-2, pretreated 45 min. with 500 μM scavenger or vehicle (H2O), and given 20 μM AA for 1 h before lysing and extracting histones. Histone proteins were analyzed by LC/ESI/MS/MS for LG-lysyl lactam adduct, n=2. (B) Stimulated A549 cells were pretreated with 30, 300, or 1000 μM EtSA prior to 1 h with 20 μM AA, and histones analyzed for LG-lysyl adduct. *, p<0.05 by one-way ANOVA followed by Dunnett's multiple comparisons post-test (n=3-5). (C). A549 cells were stimulated, pretreated 45 min. with 1000 μM EtSA or H2O vehicle, and given 20 μM AA for 1 h. Media was analyzed by GC/MS for PGE2 (n=3). There was no effect on PGE2 production at lower doses of EtSA (data not shown).
To stimulate COX-2 expression, A549 or RAW264.7 cells were treated overnight with 5 ng/mL IL-1B (A549) or 10 μg/mL LPS and 10 U/mL IFNγ (RAW264.7) in serum-free medium. When indicated, cells were pretreated with indomethacin, aldehyde scavengers (glucosamine, 3-MoSA, PPM or EtSA), or vehicle (ethanol for indomethacin, H2O for scavengers) for 45 min, and then given 20 μM arachidonic acid (AA) or DMSO vehicle for 1 h before lysing.
Cultured cells were lysed in hypotonic buffer (10 mM Tris/10 mM NaCl/3 mM MgCl2) containing 1 mM pyridoxamine and 100 μM indomethacin to prevent the artifactual formation of LGE2 during the lytic process. […] Protein concentration was determined using the method of Bradford. […]

For `CCc1ccc(O)c(CN)c1` [EtHOBA, 5-ethyl-2-hydroxybenzylamine], the Lys-LG adduct levels ([1]; AGS cells infected with Hp PMSS1 ± 10 mM EtSA) was “inhibited”, the lysyl-LG adduct concentration ([1]; H. pylori-infected AGS cells, 24 h, 10 μM EtSA) was “completely attenuated” and the “potency in protecting histones from modification by levuglandins” value ([2]; in comparison with salicylamine, pyridoxamine and their other analogues) was “most potent”. The “LG adduct formation on histones” value ([2]; stimulated RAW264.7, 500 μM scavenger 45 min, 20 μM AA 1 h) was “most effectively blocked”.
